Measured values from patent US10010545B1, “Antibiotic compositions and methods of use” (University of South Florida, priority 2013, dated 2018).

Experiments:
Acinetobacter baumannii = experiment: Growth testing against ESKAPE pathogens: Acinetobacter baumannii; format: cell-based; design: key: Growth; X: No Growth
Method: (§1) Six analogs (FIG. 2) of the ciprofloxacin-N thiolated β-lactam were successfully synthesized. All these compounds were then tested against ESKAPE pathogens for bioactivity. The ESKAPE pathogens are a collection of six deadly superbugs, Enterococcus faecium, Staphylococcus aureus, Klebsiella pneumoniae, Acinetobacter baumannii, Pseudomonas aeruginosa, and Enterobacter species. […] G denotes growth and X denotes no growth in the tables.

Klebesiella pneumonia = experiment: Growth testing against ESKAPE pathogens: Klebesiella pneumonia; format: cell-based, Klebsiella pneumoniae; design: key: Growth; X: No Growth
Method: as §1

Pseudomonas aeruginosa = experiment: Growth testing against ESKAPE pathogens: Pseudomonas aeruginosa; format: cell-based; design: key: Growth; X: No Growth
Method: as §1

Staphylococcus aureus = experiment: Growth testing against ESKAPE pathogens: Staphylococcus aureus; format: cell-based; design: key to Activity against Staphylococcus aureus (growth observed): Growth; X: No Growth
Method: as §1

Enterococcus faecium = experiment: Growth testing against ESKAPE pathogens: Enterococcus faecium; format: cell-based; design: key: Growth; X: No Growth
Method: as §1

CCCCCC(=O)N1CCN(c2cc3c(cc2F)c(=O)c(C(=O)OC2C(=O)N(SC)C2c2ccccc2)cn3C2CC2)CC1 (stereo not shown) [Lactam 126]
G: Activity against Acinetobacter baumannii (growth observed) (Acinetobacter baumannii; 1 μg/ml) | Activity against Acinetobacter baumannii (growth observed) (Acinetobacter baumannii; 2 μg/ml) | Activity against Acinetobacter baumannii (growth observed) (Acinetobacter baumannii; 3 μg/ml) | Activity against Acinetobacter baumannii (growth observed) (Acinetobacter baumannii; 4 μg/ml) | Activity against Acinetobacter baumannii (growth observed) (Acinetobacter baumannii; 5 μg/ml) | Activity against Acinetobacter baumannii (growth observed) (Acinetobacter baumannii; 6 μg/ml) | Activity against Acinetobacter baumannii (growth observed) (Acinetobacter baumannii; 7 μg/ml) | Activity against Acinetobacter baumannii (growth observed) (Acinetobacter baumannii; 8 μg/ml) | Activity against Acinetobacter baumannii (growth observed) (Acinetobacter baumannii; 9 μg/ml) | Activity against Acinetobacter baumannii (growth observed) (Acinetobacter baumannii; 10 μg/ml) | Activity against Acinetobacter baumannii (growth observed) (Acinetobacter baumannii; 25 μg/ml) | Activity against Klebesiella pneumonia (growth observed) (Klebesiella pneumonia; 1 μg/ml) | Activity against Klebesiella pneumonia (growth observed) (Klebesiella pneumonia; 2 μg/ml) | Activity against Klebesiella pneumonia (growth observed) (Klebesiella pneumonia; 3 μg/ml) | Activity against Klebesiella pneumonia (growth observed) (Klebesiella pneumonia; 4 μg/ml) | Activity against Klebesiella pneumonia (growth observed) (Klebesiella pneumonia; 5 μg/ml) | Activity against Klebesiella pneumonia (growth observed) (Klebesiella pneumonia; 6 μg/ml) | Activity against Klebesiella pneumonia (growth observed) (Klebesiella pneumonia; 7 μg/ml) | Activity against Klebesiella pneumonia (growth observed) (Klebesiella pneumonia; 8 μg/ml) | Activity against Klebesiella pneumonia (growth observed) (Klebesiella pneumonia; 9 μg/ml) | Activity against Klebesiella pneumonia (growth observed) (Klebesiella pneumonia; 10 μg/ml) | Activity against Klebesiella pneumonia (growth observed) (Klebesiella pneumonia; 25 μg/ml) | Activity against Pseudomonas aeruginosa (growth observed) (Pseudomonas aeruginosa; 1 μg/ml) | Activity against Pseudomonas aeruginosa (growth observed) (Pseudomonas aeruginosa; 2 μg/ml) | Activity against Pseudomonas aeruginosa (growth observed) (Pseudomonas aeruginosa; 3 μg/ml) | Activity against Pseudomonas aeruginosa (growth observed) (Pseudomonas aeruginosa; 4 μg/ml) | Activity against Pseudomonas aeruginosa (growth observed) (Pseudomonas aeruginosa; 5 μg/ml) | Activity against Pseudomonas aeruginosa (growth observed) (Pseudomonas aeruginosa; 6 μg/ml) | Activity against Pseudomonas aeruginosa (growth observed) (Pseudomonas aeruginosa; 7 μg/ml) | Activity against Pseudomonas aeruginosa (growth observed) (Pseudomonas aeruginosa; 8 μg/ml) | Activity against Pseudomonas aeruginosa (growth observed) (Pseudomonas aeruginosa; 9 μg/ml) | Activity against Pseudomonas aeruginosa (growth observed) (Pseudomonas aeruginosa; 10 μg/ml) | Activity against Pseudomonas aeruginosa (growth observed) (Pseudomonas aeruginosa; 25 μg/ml) | Activity against Staphylococcus aureus (growth observed) (Staphylococcus aureus; 1 μg/ml) | Activity against Staphylococcus aureus (growth observed) (Staphylococcus aureus; 2 μg/ml) | Activity against Staphylococcus aureus (growth observed) (Staphylococcus aureus; 3 μg/ml) | Activity against Staphylococcus aureus (growth observed) (Staphylococcus aureus; 4 μg/ml) | Activity against Staphylococcus aureus (growth observed) (Staphylococcus aureus; 5 μg/ml) | Activity against Staphylococcus aureus (growth observed) (Staphylococcus aureus; 6 μg/ml) | Activity against Staphylococcus aureus (growth observed) (Staphylococcus aureus; 7 μg/ml) | Activity against Staphylococcus aureus (growth observed) (Staphylococcus aureus; 8 μg/ml) | Activity against Staphylococcus aureus (growth observed) (Staphylococcus aureus; 9 μg/ml) | Activity against Staphylococcus aureus (growth observed) (Staphylococcus aureus; 10 μg/ml) | Activity against Staphylococcus aureus (growth observed) (Staphylococcus aureus; 25 μg/ml) | Activity against Enterococcus faecium (growth observed) (Enterococcus faecium; 1 μg/ml) | Activity against Enterococcus faecium (growth observed) (Enterococcus faecium; 2 μg/ml) | Activity against Enterococcus faecium (growth observed) (Enterococcus faecium; 3 μg/ml) | Activity against Enterococcus faecium (growth observed) (Enterococcus faecium; 4 μg/ml) | Activity against Enterococcus faecium (growth observed) (Enterococcus faecium; 5 μg/ml) | Activity against Enterococcus faecium (growth observed) (Enterococcus faecium; 6 μg/ml) | Activity against Enterococcus faecium (growth observed) (Enterococcus faecium; 7 μg/ml) | Activity against Enterococcus faecium (growth observed) (Enterococcus faecium; 8 μg/ml) | Activity against Enterococcus faecium (growth observed) (Enterococcus faecium; 9 μg/ml) | Activity against Enterococcus faecium (growth observed) (Enterococcus faecium; 10 μg/ml) | Activity against Enterococcus faecium (growth observed) (Enterococcus faecium; 25 μg/ml)
